US8114863B2, “Compounds comprising short aminoalcohol chains and metal complexes for medical imaging” (Guerbet, priority 2005, dated 2012)

Key:
[1] = Relaxivity measurements (r1 from relaxation times T1/T2, Minispec 120); format: physicochemical
Description: […] The longitudinal relaxation time T1 is measured using an inversion recovery sequence and the transverse relaxation time T2 is measured by a CPMG technique.
The relaxation rates R1 (=1/T1) and R2 (=1/T2) were calculated for different total metal concentrations (varying from 0.1×10^−3 to 1×10^−3 mol/l) in aqueous solution at 37° C. The correlation between R1 or R2 as a function of the concentration is linear and the slope represents the relaxivity r1 (RUC) or r2 (R2/C) expressed as (1/second)×(1/mmol/l), i.e. mM^−1·s^−1.
The compounds were prepared in different media: water, NaCl, citrate, phosphate, carbonate, cocktail of ions.

C6 glioma = assay: In vivo MRI imaging study, detection of C6 glioma in rat; settings: 0.1 mmol/kg, 2.35 T
Description: Compounds II (example 2) was compared to Dotarem® ans MultiHance(® for the detection of C6 glioma in rat (n=6/product). Each animal received all the three products at the same dose (0.1 mmol/kg) in a random order. A minimal delay of 4 hours has been respected between the injections in order to avoid remaining contrast from the previous injection. Enhancement was follow-up during 30 min with a T1w-Spin Echo sequence (TR/TE=498/14.2 ms, FOV=4×4 cm2, slice thickness 2 mm, interslice distance 3 mm, 192×192 matrix, 2 accumulation) on a 2.35 T system (BioSpec 24/40, Bruker, Germany). Enhancement of the lesions have been quantitatively (ROIs) and qualitatively (blinded cotation) evaluated. […] However among the three contrast agents, compound II induced a 2 fold-more pronounced contrast between the lesion and the healthy brain.

[2] = Osmolality (Wescor 5220 tonometer); format: physicochemical; settings: at administration dose of the product in man (500 mM; Gadovist 1000 mM)

O=C(O)CCC(C(=O)O)N1CCN(C(CCC(=O)O)C(=O)O)CCN(C(CCC(=O)O)C(=O)O)CCN(C(CCC(=O)O)C(=O)O)CC1 (stereo not shown)
Relaxivity r1 in water (mM − 1s − 1) at 0.5 T [1]: 6.2 mM − 1s − 1

O=C(CCCC(C(=O)O)N1CCN(C(CCCC(=O)NCC(O)CO)C(=O)O)Cc2cccc(n2)CN(C(CCCC(=O)NCC(O)CO)C(=O)O)CC1)NCC(O)CO (stereo not shown) [complex 7]
relaxivity at 20 MHz ([1]; 20 MHz): 14.7 mM^−1s^−1 Gd^−1
relaxivity at 40 MHz ([1]; 40 MHz): 12.8 mM^−1s^−1 Gd^−1
relaxivity at 300 MHz ([1]; 300 MHz): 10.4 mM^−1s^−1 Gd^−1

CNC[C@H](O)[C@@H](O)[C@H](O)[C@H](O)CO.CNC[C@H](O)[C@@H](O)[C@H](O)[C@H](O)CO.O=C([O-])CN(CCN(CC(=O)[O-])CC(=O)O)CCN(CC(=O)O)C(COCc1ccccc1)C(=O)[O-].[Gd+3] (stereo not shown) [MultiHance]
depiction of the lesions (C6 glioma): All the lesions have been depicted

CNC[C@H](O)[C@@H](O)[C@H](O)[C@H](O)CO.O=C([O-])CN1CCN(CC(=O)[O-])CCN(CC(=O)O)CCN(CC(=O)[O-])CC1.[Gd+3] [Dotarem ®]
Osmality (mOsm/kg) [2]: 1350 mOsm/kg
Relaxivity r1 at 60 MHz in water [1]: 3.5 mM⁻¹ s⁻¹
depiction of the lesions (C6 glioma): All the lesions have been depicted

CNC[C@H](O)[C@@H](O)[C@H](O)[C@H](O)CO.CNC[C@H](O)[C@@H](O)[C@H](O)[C@H](O)CO.O=C([O-])CN(CCN(CC(=O)[O-])CC(=O)O)CCN(CC(=O)[O-])CC(=O)O.[Gd+3] [Magnevist ®]
Osmality (mOsm/kg) [2]: 1950 mOsm/kg
Relaxivity r1 at 60 MHz in water [1]: 3.5 mM⁻¹ s⁻¹

O=C(O)C(CCO)N1CCN(C(CCO)C(=O)O)Cc2cccc(n2)CN(C(CCO)C(=O)O)CC1 (stereo not shown) [Comparative Example 9]
relaxivity ([1]; field not stated): 6
Relaxivity r1 in water (mM − 1s − 1) at 0.5 T [1]: 6 mM − 1s − 1

O=C([O-])CN1CCN(CC(=O)[O-])CCN([C@H](CO)[C@H](O)CO)CCN(CC(=O)[O-])CC1.[Gd+3] (racemic) [Gadovist ® (1M)]
Osmality (mOsm/kg) [2]: 1400 mOsm/kg
